Test results from patent US11607398B2, “Chlorogenic acid composition and method of weight management” (Vidya Herbs, Inc., priority 2015, dated 2023).
Several values for one entry are separate records, joined by “and”; a condition that tells them apart may be missing. Equal values may be shown once.

Assays:
[1] = DPPH radical scavenging assay; type: biochemical
Method: The free radical scavenging capacity of the test sample was determined using DPPH scavenging assay. DPPH solution was prepared in 95% methanol. Freshly prepared DPPH solution was taken in test tubes and different concentration of test samples were added and incubated for 20 min. The absorbance was read at 517 nm using a spectrophotometer. Blank was prepared containing the same volume of reaction mixture without any tested samples. The percentage of scavenging was calculated using the formula: % Scavenging=Ac−As/Ac×100 Where AC was the absorbance of the control (blank) and AS was the absorbance in the presence of the composition (Braca et al., 2001).

[2] = Superoxide anion scavenging activity (NBT/NADH/PMS); type: biochemical
Method: Prepared all the solutions in this experiment using phosphate buffer (pH 7.4). Added 1 ml of NBT (156 μM), 1 ml of NADH (468 μM) and 3 ml of test samples to all test tubes. The reaction was started by adding 100 ml of PMS (60 μM) and incubated the mixture at 25° C. for 5 min followed by measurement of absorbance at 560 nm. The percentage of scavenging was calculated using formula: % Scavenging=Ac−As/Ac×100 Where AC was the absorbance of the control (blank) and As was the absorbance in the presence of the composition.

[3] = Reducing power assay (Fe3+ to Fe2+); type: biochemical; parameters: Reducing power activity: unit not given here
calf thymus DNA = assay: Protective effect on DNA scission induced by hydroxyl radical (TBA assay); type: biochemical
Method: In this assay hydroxyl radicals are typically generated within a mixture of ascorbic acid, H2O2 and Fe3+-ethylenediaminetetracetic acid (EDTA); those radicals that are not scavenged by other components of the reaction mixture will eventually attack deoxyribose, thus degrading it into a series of fragments.
The experiment was conducted using calf thymus DNA. Briefly, sample was dissolved in ethanol at 1 mg/mL. 50 μl of different concentration of sample was then separately taken into mini tubes followed by addition of 400 μL of phosphate buffer (0.2 mol/L, pH 7.4). Subsequently, 50 μL DNA sodium, 50 μL H2O2, 50 μL FeCl3 and 50 μL Na2EDTA (1 mmol/L) were added. The reaction was initiated by adding 50 μL ascorbic acid (18 mmol/L) and the total volume of the reaction mixture was adjusted to 800 μL with buffer. After incubation in a water bath at 55° C. for 20 min, the reaction was terminated by adding 250 μL TCA.
The color was then developed by addition of 150 μL of TBA and heating in an oven at 105° C. for 15 min. The mixture was cooled and absorbance was measured at 532 nm against the buffer (as blank). The percent of protection against DNA damage is expressed Protective effect %=(1−A/A0)×100 Where A0 is the absorbance of the mixture without sample, and A is the absorbance of the mixture with sample. Results

[4] = system: Salmonella typhimurium TA 100; type: cell-based; conditions: TA 100, +s9, positive control, concentration not given
[5] = system: Salmonella typhimurium TA 98; assay: Ames Salmonella mutagenicity test (preincubation method), strain TA 98; type: cell-based; conditions: TA 98, +s9, positive control, concentration not given

O=C1O[C@H]([C@@H](O)CO)C(O)=C1O [Ascorbic acid]
% inhibition (DPPH scavenging activity) ([1]; 20 μg/ml): 83.21%
Absorbance @517 nm ([1]; 20 μg/ml): 0.046
% inhibition (DPPH scavenging activity) ([1]; 40 μg/ml): 90.88%
Absorbance @517 nm ([1]; 40 μg/ml): 0.025
% inhibition (DPPH scavenging activity) ([1]; 60 μg/ml): 94.53%
Absorbance @517 nm ([1]; 60 μg/ml): 0.015
% inhibition (DPPH scavenging activity) ([1]; 80 μg/ml): 94.89%
Absorbance @517 nm ([1]; 80 μg/ml): 0.014
% inhibition (DPPH scavenging activity) ([1]; 100 μg/ml): 96.72%
Absorbance @517 nm ([1]; 100 μg/ml): 0.009
% inhibition (DPPH scavenging activity) ([1]; 100 μg/ml, listed as ascorbic acid): 96.71%
% inhibition (superoxide scavenging activity) ([2]; 20 μg/ml): 84.80%
Absorbance @560 nm ([2]; 20 μg/ml): 0.038
% inhibition (superoxide scavenging activity) ([2]; 40 μg/ml): 85.20%
Absorbance @560 nm ([2]; 40 μg/ml): 0.037
% inhibition (superoxide scavenging activity) ([2]; 60 μg/ml): 88.40%
Absorbance @560 nm ([2]; 60 μg/ml): 0.029
% inhibition (superoxide scavenging activity) ([2]; 80 μg/ml): 89.20%
Absorbance @560 nm ([2]; 80 μg/ml): 0.027
% inhibition (superoxide scavenging activity) ([2]; 100 μg/ml): 89.60%
Absorbance @560 nm ([2]; 100 μg/ml): 0.026
Absorbance (reductive capability, 700 nm) ([3]; 100 μg/ml): 0.970
Reducing power activity ([3]; 20 (Table 7; range 20-100 μg/ml per text)): 15.46
Reducing power activity ([3]; 40 (Table 7)): 16.60
Reducing power activity ([3]; 60 (Table 7)): 16.61
Reducing power activity ([3]; 80 (Table 7)): 17.33
Reducing power activity ([3]; 100 (Table 7)): 18.59

COc1ccc(O)c(C(C)(C)C)c1 [BHA]
% protective effect (DNA damage) (calf thymus DNA; 10 μg/ml): 15.79 ± 0.89%
% protective effect (DNA damage) (calf thymus DNA; 20 μg/ml): 19.25 ± 1.09%
% protective effect (DNA damage) (calf thymus DNA; 40 μg/ml): 32.50 ± 2.12%
% protective effect (DNA damage) (calf thymus DNA; 60 μg/ml): 39.16 ± 0.33%
% protective effect (DNA damage) (calf thymus DNA; 80 μg/ml): 43.04 ± 0.29%
% protective effect (DNA damage) (calf thymus DNA; 100 μg/ml): 51.37% and 51.37 ± 4.06%

Nc1ccc2cc3ccccc3cc2c1 [PC 2AF, 2-aminoanthracene]
Revertant colonies/plate (Mean n = 2 ± S.D.) [4]: 2737 ± 4.9 Revertant colonies/plate
Revertant colonies/plate (Mean n = 2 ± S.D.) [5]: 1560 ± 3.53 Revertant colonies/plate
